Residue numbers refer to the chain shown, from its start.
Experiments:
Type in all cases: cell-based
GNAQ (WT) = biological target: T1, GNAQ (WT) (Homo sapiens, UniProt P50148); experiment: SRE luciferase reporter gene-HEK293 cell line, GNAQ (WT); details: Cell type WT, 20% FBS induction, read-out: GNAQ inhibitory rate; for inhibition at 0.9 µM: analytical concentration 900 nM; for inhibition at 2.7 µM: analytical concentration 2,700 nM; for inhibition at 8.1 µM: analytical concentration 8,100 nM
T1 construct: BPS Bioscience (parental reporter cell line) 60406
T1 sequence (P50148 1-359): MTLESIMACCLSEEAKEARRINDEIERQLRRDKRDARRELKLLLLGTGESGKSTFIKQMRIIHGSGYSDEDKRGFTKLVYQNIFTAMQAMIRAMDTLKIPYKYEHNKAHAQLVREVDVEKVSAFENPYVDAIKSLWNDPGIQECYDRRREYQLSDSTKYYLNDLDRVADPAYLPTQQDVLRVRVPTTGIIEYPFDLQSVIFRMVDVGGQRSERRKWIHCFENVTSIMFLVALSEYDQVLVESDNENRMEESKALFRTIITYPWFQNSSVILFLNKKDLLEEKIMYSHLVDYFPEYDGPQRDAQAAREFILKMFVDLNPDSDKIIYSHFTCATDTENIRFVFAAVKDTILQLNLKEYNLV
Procedure: (§1) 7.5×10^4 SRE-293-GNAQ (WT) or SRE-293-GNAQ (T96S) cell lines were seeded in a 24-well plate and cultured in a carbon dioxide incubator at 37° C. SRE-293-GNAQ (WT) or SRE-293-GNAQ (T96S) cell lines was derived from additionally transfecting SRE Reporter—HEK293 Recombinant Cell Line (ERK Pathway) (Catalog number: 60406; BPS Bioscience) cells with an expression vector separately expressing GNAQ (WT) or GNAQ (T96S), and screening a stable expression cell line by the antibiotic, geneticin (type number 10131035; Thermo Fisher Scientific). GNAQ (WT) or GNAQ (T96) expression vector was derived from gene synthesis and point mutation modification of GenScript company's customized services.
(§2) After 48 hours of culture, the culture medium in the 24-well plate was replaced with minimal essential medium (MEM) containing only 0.1% fetal bovine serum (FBS) and the cells were cultured overnight.
(§3) After overnight culture, the compound to be tested was added to the cells and reacted for 2 hours, and the medium at this point was still MEM medium containing only 0.1% fetal bovine serum. After reacting with the compound to be tested for 2 hours, fetal bovine serum at a final concentration of 20% was added to the cells and reacted for at least 4 hours. After the reaction, the supernatant was removed. Next, 100 μL of cell lysis reagent CelLytic M Cell Lysis Reagent (Catalog number: C2978; Sigma) was added to the cells and aspirated repeatedly several times to form a cell lysate solution with the cells. The cell lysate solution was collected in a microcentrifuge tube and centrifuged at a high speed of 14,000 rpm for 5 minutes. After that, 30 μL of supernatant was taken out and placed in a 96-well white plate for luminescence analysis, and 30 μL of firefly luminescence analysis reagent (Catalog No. E1501; Promega) diluted 3-fold was added and mixed well, and then luminescence detection was performed with a plate enzyme immunoassay analyzer (ELISA reader) to evaluate the effect of the compound to be tested on MAPK signaling induced by GNAQ through the expression of the firefly luciferase reporter gene.
(§4) In order to confirm the effect of the compounds on MAPK signaling induced by GNAQ, the screened SRE-HEK293 cells capable of expressing exogenous GNAQ (WT) and GNAQ (T96S) genes were subjected to overnight serum starvation, and 2 hours before induction with 20% fetal bovine serum, the compound to be tested (one of Compound 1 to Compound 15 prepared above) was added to the cells, and after serum induction, the expression of the firefly luciferase reporter gene was measured. Through the above steps, the inhibition of the compound to be tested on GNAQ expression could be evaluated through the expression of the reporter gene in cells.

GNAQ (T96S) = biological target: T2, GNAQ (T96S) (Homo sapiens, UniProt P50148, T96S); experiment: SRE luciferase reporter gene-HEK293 cell line, GNAQ (T96S); details: Cell type T96S, 20% FBS induction, read-out: GNAQ inhibitory rate; for inhibition at 0.9 µM: analytical concentration 900 nM; for inhibition at 2.7 µM: analytical concentration 2,700 nM; for inhibition at 8.1 µM: analytical concentration 8,100 nM
T2 construct: BPS Bioscience (parental reporter cell line) 60406
T2 sequence (P50148 1-359 T96S): T1 sequence (P50148 1-359) with T96S
Procedure: as §1, §2, §3, §4

MCF-7 cells = experiment: Inhibition of growth of mammary gland cancer cells MCF-7 (PrestoBlue); details: Homo sapiens, MCF7, 168 h, 7 days culture, 2% fetal bovine serum, read-out: Inhibitory activity (evaluated by IC50)
Procedure: Human mammary gland cancer cells, MCF-7 cells and MCF-7 GNAQ (T96S) cells (MCF-7 cells expressing GNAQ (T96S) after GNAQ gene deletion) were cultured in MEM medium.
1×10^3 of the cells mentioned above were seeded in a 96-well plate and cultured overnight (at least 16 hours) in a carbon dioxide incubator.
After overnight incubation, the supernatant was removed. Next, after 200 μL of cell culture medium (containing 2% fetal bovine serum) containing different concentrations of test compound was added to each well of the 96-well plate, the 96-well plate was placed in a 5% carbon dioxide incubator at 37° C. for 7 days further culture. After that, an additional 30 μL of diluted PrestoBlue™ Cell Viability Reagent (Catalog Number: A13261; Thermo Fisher Scientific) (4 μL stock solution and 26 μL culture medium) was added to each well of the 96-well plate and the reaction was continued for further about 1 hour.
Finally, the fluorescence value at the wavelength of 535/615 nm of each well was read with a plate enzyme immunoassay analyzer, and the inhibitory rate of the compound on mammary gland cancer cells were calculated using the following formula.
Moreover, the half maximal inhibitory concentration (IC50) of the compound on the growth of mammary gland cancer cells was calculated with the inhibitory rate of the compound on mammary gland cancer cells at each concentration through the online half maximal inhibitory concentration (IC50) calculation software, IC50 Calculator, provided by AAT Bioquest company on its website (https://www.aatbio.com/tools/ic50-calculator).
Finally, the inhibition of the compound on the growth of mammary gland cancer cells was evaluated by the calculated half maximal inhibitory concentration (IC50) of the compound on the growth of mammary gland cancer cells.
The inhibition of the compound on the growth of breast cancer cells was evaluated by the half maximal inhibitory concentration (IC50) of the compound (one of Compound 1 to Compound 15 prepared above) on the growth of mammary gland cancer cells through the human mammary gland cancer cell line MCF-7 and the human mammary gland cancer cell line MCF-7 GNAQ (T96S) expressing the mutated gene.

inhibition at 0.9 µM (GNAQ (WT)) [%] | inhibition at 2.7 µM (GNAQ (WT)) [%] | inhibition at 8.1 µM (GNAQ (WT)) [%] | inhibition at 0.9 µM (GNAQ (T96S)) [%] | inhibition at 2.7 µM (GNAQ (T96S)) [%] | inhibition at 8.1 µM (GNAQ (T96S)) [%] | IC50 (MCF-7 cells) [nM] | Compound
< 10 | 10 to 39 | > 70 | < 10 | 10 to 39 | > 70 | 310 to 2500 | O=C(Nc1cccc(-c2ccnc(-c3ccnc(Cl)c3)n2)c1)Nc1cc(Cl)nc(Cl)c1 [Compound 1]
10 to 39 | 10 to 39 | > 70 | < 10 | 10 to 39 | > 70 | 310 to 2500 | O=C(Nc1cccc(-c2ccnc(-c3cccc(C(F)(F)F)c3)n2)c1)Nc1cc(Cl)nc(Cl)c1 [Compound 2]
10 to 39 | 10 to 39 | > 70 | < 10 | 40 to 70 | > 70 | 310 to 2500 | N#Cc1cccc(-c2nccc(-c3cccc(NC(=O)Nc4cc(Cl)nc(Cl)c4)c3)n2)c1 [Compound 3]
< 10 | 10 to 39 | 40 to 70 | < 10 | 10 to 39 | 40 to 70 | 310 to 2500 | O=C(Nc1cccc(-c2ccnc(-c3ccc(F)c(F)c3)n2)c1)Nc1cc(Cl)nc(Cl)c1 [Compound 4]
< 10 | 10 to 39 | < 10 | < 10 | < 10 | < 10 | 310 to 2500 | O=C(Nc1cccc(-c2ccnc(-c3cccc(C(F)(F)F)c3)n2)c1)c1cc(Cl)nc(Cl)c1 [Compound 5]
< 10 | 10 to 39 | 10 to 39 | 10 to 39 | 10 to 39 | 40 to 70 | 310 to 2500 | O=C(Nc1ccc(-c2ccnc(-c3ccncc3)n2)cc1)Nc1ccc(Cl)c(C(F)(F)F)c1 [Compound 6]
< 10 | < 10 | 10 to 39 | < 10 | 10 to 39 | 10 to 39 | 310 to 2500 | O=C(Nc1ccc(-c2ccnc(-c3cccc(C(F)(F)F)c3)n2)cc1)Nc1cc(Cl)nc(Cl)c1 [Compound 7]
< 10 | < 10 | < 10 | < 10 | < 10 | 10 to 39 | 310 to 2500 | O=C(Nc1ccc(-c2ccnc(-c3cccc(C(F)(F)F)c3)n2)cc1)Nc1ccc(Cl)c(C(F)(F)F)c1 [Compound 8]
10 to 39 | 10 to 39 | > 70 | < 10 | 10 to 39 | 40 to 70 | 310 to 2500 | O=C(Nc1ccc(-c2cccc(-c3cccc(C(F)(F)F)c3)n2)cc1)Nc1cc(Cl)nc(Cl)c1 [Compound 9]
10 to 39 | 40 to 70 | > 70 | < 10 | 40 to 70 | > 70 | 310 to 2500 | FC(F)(F)c1cccc(-c2cccc(-c3ccc(NC(=S)Nc4cc(Cl)nc(Cl)c4)cc3)n2)c1 [Compound 10]
10 to 39 | 40 to 70 | > 70 | 10 to 39 | 40 to 70 | > 70 | 310 to 2500 | N#Cc1cccc(-c2cccc(-c3ccc(NC(=S)Nc4cc(Cl)nc(Cl)c4)cc3)n2)c1 [Compound 11]
10 to 39 | 10 to 39 | 40 to 70 | 10 to 39 | 40 to 70 | 40 to 70 | 310 to 2500 | O=C(Nc1ccc(-c2cccc(-c3ccncc3)n2)cc1)Nc1ccc(Cl)c(C(F)(F)F)c1 [Compound 12]
10 to 39 | 40 to 70 | > 70 | 10 to 39 | 40 to 70 | > 70 | 310 to 2500 | O=C(Nc1cccc(-c2cccc(-c3ccncc3)n2)c1)Nc1cc(Cl)nc(Cl)c1 [Compound 13]
< 10 | 10 to 39 | 40 to 70 | 10 to 39 | 10 to 39 | > 70 | < 310 | O=C(Nc1cccc(-c2cc(-c3cccc(C(F)(F)F)c3)ncn2)c1)Nc1cc(Cl)nc(Cl)c1 [Compound 14]
< 10 | 10 to 39 | > 70 | < 10 | 10 to 39 | 40 to 70 | < 310 | O=C(Nc1ccc(-c2nc(-c3ccccc3)ncc2Cl)cc1)Nc1cc(Cl)nc(Cl)c1 [Compound 15]

From patent US20250197373A1, “SMALL MOLECULE COMPOUND OR SALT THEREOF OR SOLVATE OF THEM, GUANINE NUCLEOTIDE-BINDING PROTEIN G(Q) SUBUNIT ALPHA (GNAQ) INHIBITOR CONTAINING THE SAME AND METHOD FOR TREATING AND/OR PREVENTING CANCER” (INDUSTRIAL TECHNOLOGY RESEARCH INSTITUTE, priority 2023, published 2025)
